Key:
αSMA [1] = assay: αSMA expression (western blot) in TGFβ1-stimulated HFL1 cells; type: cell-based, human; conditions: PPMP 3 μM, NB-DNJ 100 μM applied 30 minutes before TGFβ1 (10 ng/mL), 24 hours
Method: Human pulmonary fibroblast (HFL1) (ATCC CCL-153) cells were cultured under the conditions of 95% air-5% CO2 and 37° C., using a Dulbecco's Modified Eagle Medium (DMEM) containing 10% fetal bovine serum (FBS), 100 μg/mL streptomycin, and 66.7 μg/mL penicillin.
How an increase in lactosylceramide synthesis activity due to TGFβ1 affects the fibrosing of tissues was examined based on the expression level of αSMA, which is a fibrosing marker protein.

PKCδ = assay: Translocation of PKCδ into the cellular membrane in HFL1 cells; type: cell-based, human; conditions: PPMP 3 μM, Rottlerin 1 μM applied beforehand, two hours after TGFβ1 10 ng/mL
Method: HFL1 cells were inoculated onto a 3.5-cm glass-bottom dish by 1.0×10^4 cells/dish, and then cultured in 2.0 mL of DMEM containing 10% FBS, to achieve 70% confluence. The cells were washed in HBSS containing 0.1% BSA, and then cultured in DMEM containing 0.1% BSA for 48 hours without serum.
Thereafter, the medium was replaced by a DMEM containing 0.1% BSA, and stimulation was given for a specified period using each reagent (each inhibitor was applied 30 minutes before the stimulant), after which each sample was fixed with 4% paraformaldehyde (PFA) at 4° C. for 15 minutes. Thereafter, as deemed appropriate, the sample was permeabilized (0.3% saponin, room temperature, 1 hour) and blocked (3% BSA, room temperature, 1 hour), with a primary antibody applied overnight at 4° C., and a secondary antibody applied for 1 hour at room temperature. For immunostaining of Smad and phosphorylated Smad, ribonuclease A (RNase, Worthington Biochemical) (200 μg/mL, room temperature, 30 minutes) and propidium iodide (PI, Cayman Chemical) (20 μg/mL, room temperature, 30 minutes) were applied to stain the nucleus, and the stained images were observed using a confocal microscope (FV500 manufactured by Olympus).
In general, activation of PKC is observed in the form of its translocation into the cellular membrane; accordingly, involvement of lactosylceramide was examined using the translocation of PKCδ into the cellular membrane as an indicator.

[2] = tested on: lactosylceramide synthase; assay: Lactosylceramide synthesis activation test; type: cell-based, human; conditions: HFL1 cells; PPMP 3 μM, NB-DNJ 100 μM applied 30 minutes before TGFβ1 (10 ng/mL) stimulation
Method: The experiment was conducted by referring to Chatterjee S, Pandey A. The Yin and Yang of lactosylceramide metabolism: implications in cell function. Biochim Biophys Acta. 2008 March; 1780 (3); 370-82.
The sample was put through quantitative determination of protein, and then 300 μM of […], 100 μM of uridine diphosphate galactose (UDP-Gal, containing 7.5×10^5 dpm of [^3H] UDP-Gal), and reaction buffer, were added to 50 μL of sample, to a final volume of 100 μL/tube. This reaction sample was incubated for 2 hours at 37° C., and finally 50 mM of KCl and 25 mM of EDTA were added to stop the reaction. Thereafter, lipids were extracted from the sample according to the Bligh-Dyer method, and all lipids were expanded using TLC (chloroform:methanol:water=100:42:6). The separated lipids were stained using iodine gas, silica gel at the same position as the lactosylceramide target was scraped off, and its radiation activity was measured using a liquid scintillation counter (Aloka LSC-5100 manufactured by Hitachi-Aloka Medical), and then the amount of synthesized lactosylceramide was calculated. It should be noted that, for the background sample(control), a sample with zero incubation time was used.
Whether or not TGFβ1 treatment would increase the synthesis of lactosylceramide was examined in vitro. […]

Smad2/3 = conditions: HFL1 cells; PPMP 3 μM applied 30 minutes before TGFβ1 (10 ng/mL) treatment; over time
Method: HFL1 cells were inoculated onto a six-well plate by 1.0×10^5 cells/well, and then cultured in 2.0 mL of DMEM containing 10% FBS, to achieve 70% confluence. The cells were washed using Hanks' balanced salt solution (HBSS) containing 0.1% bovine serum albumin (BSA) (4.2 mM NaHCO3, 137 mM NaCl, 5.36 mM KCl, 0.4 mM MgSO4.7H2O, 0.34 mM Na2HPO4.12H2O, 5.55 mM glucose, 0.44 mM KH2PO4, 0.72 mM CaCl2.H2O, pH=7.4), and then cultured in a DMEM containing 0.1% BSA for 48 hours without serum. […]
The cells were crushed according to the vortex method, centrifuged under the conditions of 15000 rpm and 4° C. for 30 minutes, and the supernatant was taken as a sample. Quantitative determination of protein was performed according to the Bradford method, and a specified amount of protein was separated by SDS-polyacrylic amide gel electrophoresis. […]
Thereafter, the PVDF film was soaked in an ECL solution and fluorometric detection was performed using an image capture/analysis system (ChemiDocMP System manufactured by Bio-Rad). The detected bands were converted to numerical values using image processing software (ImageJ).

Smad2 = Smad2 nuclear localization (immunofluorescent staining, confocal) in HFL1 cells; type: cell-based, human; conditions: pretreatment PPMP 3 μM or NB-DNJ 100 μM, TGFβ1 10 ng/mL, 3 hours
Method: For immunostaining of Smad and phosphorylated Smad, ribonuclease A (RNase, Worthington Biochemical) (200 μg/mL, room temperature, 30 minutes) and propidium iodide (PI, Cayman Chemical) (20 μg/mL, room temperature, 30 minutes) were applied to stain the nucleus, and the stained images were observed using a confocal microscope (FV500 manufactured by Olympus).
When localization of Smad2/3 was observed, on the other hand, Smad2/3 accumulated in the nucleus in 3 hours after the single stimulation of TGFβ1 (10 ng/mL).

[3] = tested on: patient's pulmonary fibroblast cells; assay: αSMA expression (western blot) in patient's pulmonary fibroblast cells; type: cell-based, human; conditions: PPMP 0.5 μM, 1.0 μM; NB-DNJ 100 μM, 200 μM; cultured 48 hours
Method: Post-operative lung tissues were obtained from a lung transplant patient who was suffering from a serious case of pleuroparenchymal fibroelastosis.
The lung tissues were shredded, rinsed with phosphate-buffered saline (PBS), and then incubated at 37° C. for 15 minutes under gentle shaking, using 1 mg/ml collagenase type I (Worthington, Lakewood, N.J., USA), 0.5 mg/ml disperse (Life Technologies), 2 U/ml DNase (QIAGEN, Valencia, Calif., USA), 0.1 mg/ml streptomycin, and 100 U/ml penicillin.
The tissues were washed twice in DMEM, and then transferred into an 80-cm^2 culture flask and cultured at 37° C. in 5% CO2.
Cell growth was monitored every week, with the culture medium changed every four days. Once the flask reached confluent cultures, the cells were collected as cells at passage 0, and the cells obtained at passage 3 were used in the experiment as the patient's pulmonary fibroblast cells.
Patient's pulmonary fibroblast cells were cultured under the conditions of 95% air-5% CO2 and 37° C., using a Dulbecco's Modified Eagle Medium (DMEM) containing 10% fetal bovine serum (FBS), 100 μg/mL streptomycin, and 66.7 μg/mL penicillin.

[4] = tested on: bleomycin-induced fibrosing of the lung; assay: Bleomycin-induced pulmonary fibrosis mouse model: hematoxylin eosin-stained lung slices; type: in vivo, C57BL/6J mice; conditions: mice, lungs on 14th day
Method: 50 μL of 3 mg/kg bleomycin hydrochloride/saline solution (Nippon Kayaku Co., Ltd.) was administered through the bronchial tubes to C57BL/6J mice (male, 8 to 12 weeks old) under tribromoethanol-ether anesthesia, to prepare mouse models for pulmonary fibrosis. 50 μL of saline solution was administered in the same manner to a control group not treated with bleomycin hydrochloride. Seven, eight and nine days after the administration of bleomycin, 50 μL of 20 mg/kg NB-DNJ/saline solution was administered into the bronchial tubes of the mice under tribromoethanol-ether anesthesia. 50 μL of saline solution was administered into the bronchial tubes to a control group of mice not administered with NB-DNJ. For 7 to 13 consecutive days after the administration ofbleomycin, 0.2 mL of 600 mg/kg NB-DNJ/saline solution was orally administered daily (once a day). As control group mice which were not administrated with NB-DNJ, 0.2 mL of saline solution was orally administered. On the 14th day after the administration of bleomycin, each mouse was subjected to thoracotomy under deep ether anesthesia, and its entire body was perfused with PBS from the left ventricle using a syringe needle, while blood was removed from the lungs through the right ventricle, and the lungs were removed. The lungs were soaked in 4% paraformaldehyde and fixed overnight at 4° C. […]

αSMA [5] = assay: Bleomycin-induced pulmonary fibrosis mouse model: lung αSMA western blot; type: in vivo, C57BL/6J mice; conditions: mice; 20 mg/kg NB-DNJ into the bronchial tubes on days 7, 8, 9 after bleomycin; lungs on 14th day
Method: 50 μL of 3 mg/kg bleomycin hydrochloride/saline solution (Nippon Kayaku Co., Ltd.) was administered through the bronchial tubes to C57BL/6J mice (male, 8 to 12 weeks old) under tribromoethanol-ether anesthesia, to prepare mouse models for pulmonary fibrosis. 50 μL of saline solution was administered in the same manner to a control group not treated with bleomycin hydrochloride.
Seven, eight and nine days after the administration of bleomycin, 50 μL of 20 mg/kg NB-DNJ/saline solution was administered into the bronchial tubes of the mice under tribromoethanol-ether anesthesia. 50 μL of saline solution was administered into the bronchial tubes to a control group of mice not administered with NB-DNJ.
On the 14th day after the administration of bleomycin, each mouse was subjected to thoracotomy under deep ether anesthesia, and its entire body was perfused with PBS from the left ventricle using a syringe needle, while blood was removed from the lungs through the right ventricle, and the lungs were removed.
Thereafter, the tissues were further pulverized using a homogenizer, and centrifuged at 15000 rpm and 4° C. for 30 minutes.

Row | Compound | increase in the αSMA expression level due to TGFβ1 (αSMA [1]) | translocation of PKCδ into the cellular membrane due to TGFβ1 (PKCδ) | activity of the lactosylceramide synthase after TGFβ1 stimulation [2] | phosphorylation levels of Smad2/3 (Smad2/3) | accumulation of Smad2 in the nucleus due to TGFβ1 (Smad2) | expression of αSMA in patient's pulmonary fibroblast cells [3] | bleomycin-induced fibrosing of the lung, bronchial-tube-administration ([4]; 20 mg/kg NB-DNJ into the bronchial tubes on days 7, 8, 9 after bleomycin) | bleomycin-induced fibrosing of the lung, oral administration ([4]; 600 mg/kg NB-DNJ orally once a day, days 7 to 13 after bleomycin) | expression of αSMA in lung in the presence of bleomycin (αSMA [5])
1 | 1-phenyl-2-hexadecanoyl amino-3-morpholino-1-propanol [PPMP] | suppressed increase in the αSMA expression level | translocation of PKCδ into the cellular membrane was suppressed | suppressed the activity of the lactosylceramide synthase significantly | did not change the phosphorylation levels of Smad2/3 over time | suppressed the accumulation of Smad2 in the nucleus | the expression of αSMA is suppressed |  |  | 
2 | CCCCN1C[C@H](O)[C@@H](O)[C@H](O)[C@H]1CO [NB-DNJ, N-butyl deoxynojirimycin] | suppressed increase in the αSMA expression level |  | suppressed the activity of the lactosylceramide synthase significantly |  | suppressed the accumulation of Smad2 in the nucleus | the expression of αSMA is suppressed | suppress the bleomycin-induced fibrosing of the lung | suppress the bleomycin-induced fibrosing of the lung | the expression of αSMA is suppressed

— patent publication US20200061038A1, “THERAPEUTIC AGENT FOR FIBROSIS AND INHIBITOR OF NUCLEAR TRANSLOCATION OF PHOSPHORYLATED SMAD” (NATIONAL UNIVERSITY CORPORATION CHIBA UNIVERSITY, priority 2016, published 2020)
